Experimental data: patent publication US8691808B2, “Antiviral compounds and their methods of use” (Influmedix, Inc., priority 2011, dated 2014)
Counter-ions that a name gives are not always drawn.

Biological target: T1, A/M2 protein (IonGate S31) (Influenza A virus, UniProt P0DOF5)
T1 construct: expressed in transfected cells; host or cells: CHO cell membranes
Assay: Cell-free electrophysiology of M2 proton channels on solid supported membranes (SSM, IonGate SURFE2R)
Type: biochemical
Conditions: 25 μM compound, activation by pH jump 7.0 to 6.0, % inhibition=100×(1−I/Io); for inhibition at 25 µM: read-out: IonGate S31 (% Inhibition Range at 25 μM); for IonGate S31 (% Inhibition Range at 25 μM): hydrochloride

T1 sequence (P0DOF5 whole entry): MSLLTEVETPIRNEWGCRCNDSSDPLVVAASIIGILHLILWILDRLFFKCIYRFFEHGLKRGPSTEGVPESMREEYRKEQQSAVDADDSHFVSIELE

Row | Compound | inhibition at 25 µM [%] | IonGate S31 (% Inhibition Range at 25 μM)
1 | NC12CC3CC(CC(C1)C(O)C3)C2 (stereo not drawn) [Example 1, exo-1-aminotricyclo[4.3.1.1^3,8]undecan-4-ol hydrochloride] | 11 to 50 | –
2 | NC12CC3CC(CC(C1)C(F)C3)C2 (stereo not drawn) [Example 3, endo-4-fluorotricyclo[4.3.1.1^3,8]undecan-1-amine hydrochloride] | 51 to 95 | –
3 | NC12CC3CC(CC(C1)C(I)C3)C2 (centres unmarked) [Example 5, 4-iodotricyclo[4.3.1.1^3,8]undecan-1-amine hydrochloride] | 11 to 50 | –
4 | N#CC1CC2CC3CC1CC(N)(C2)C3 (stereo not drawn) [Example 8, exo-1-aminotricyclo[4.3.1.1^3,8]undecane-4-carbonitrile hydrochloride] | 51 to 95 | –
5 | NC12CC3CC(CC(C(F)F)C(C3)C1)C2 (stereo not drawn) [Example 10, exo-4-(difluoromethyl)tricyclo[4.3.1.1^3,8]undecan-1-amine hydrochloride] | – | B (11-50% (B))
6 | NC12CC3CC(CC(C(F)F)C(C3)C1)C2 (stereo not drawn) [Example 11, endo-4-(difluoromethyl)tricyclo[4.3.1.1^3,8]undecan-1-amine hydrochloride] | – | A (51-95% (A))
7 | NC12CC3CC(=NO)C(CC(C3)C1)C2 (centres unmarked) [Example 12, 1-aminotricyclo[4.3.1.1^3,8]undecan-4-one oxime hydrochloride] | 1 to 10 | –
8 | NC12CC3CC(C1)OC(=O)C(C3)C2 (centres unmarked) [Example 13, 1-amino-4-oxatricyclo[4.3.1.1^3,8]undecan-5-one hydrochloride] | 1 to 10 | –
9 | NC12CC3CC(C1)NC(=O)C(C3)C2 (centres unmarked) [Example 14, 1-amino-4-azatricyclo[4.3.1.1^3,8]undecan-5-one hydrochloride] | 1 to 10 | –
10 | NC12CC3CNC(CC(C3)C1)C2 (centres unmarked) [Example 15, 4-azatricyclo[4.3.1.1^3,8]undecan-1-amine dihydrochloride] | 11 to 50 | –
11 | NC12CC3COC(CC(C3)C1)C2 (centres unmarked) [Example 16, 4-oxatricyclo[4.3.1.1^3,8]undecan-1-amine hydrochloride] | 11 to 50 | –
